# Read-outs that look alike come from different tables or passages of the source.
# Tests used:
# MAGL enzyme = target: T1, MAGL enzyme (Homo sapiens, UniProt Q99685); experiment: MAGL reversible inhibition assay (washout), Example 22; type: biochemical; design: % MAGL activity returning after washout: concentration or dose not given beside the values
# T1 sequence (Q99685 1-303): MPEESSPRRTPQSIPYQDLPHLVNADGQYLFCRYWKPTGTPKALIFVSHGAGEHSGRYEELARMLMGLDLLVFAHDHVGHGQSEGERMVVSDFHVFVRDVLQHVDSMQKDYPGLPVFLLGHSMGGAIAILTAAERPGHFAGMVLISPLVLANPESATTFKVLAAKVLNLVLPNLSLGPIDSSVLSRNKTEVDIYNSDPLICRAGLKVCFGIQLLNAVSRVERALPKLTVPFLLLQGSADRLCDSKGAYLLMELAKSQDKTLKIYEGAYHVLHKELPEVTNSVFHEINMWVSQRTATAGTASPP
# [1] = Plasma and brain concentrations after single intraperitoneal administration, Examples 23 and 24; type: in vivo, male C57BL/6 mice; conditions: male, C57BL/6, mouse, IP 20 mg/kg
# Experimental: This experiment was performed to determine plasma pharmacokinetics and estimate 2-AG levels in male C57BL/6 mice brain following a single intraperitoneal administration of Compound-74 (Dose: 5, 15, 50 and 150 mg/kg). The experiment was repeated at 150 mg/kg on 3 separate test dates to obtain the data shown in FIG. 1A (plasma and brain concentration of Compound 74 30 minutes after IP injection), and on the first and third test dates to obtain the data shown in FIG. 1B (brain concentration of 2-AG30 minutes after IP injection of Compound 74). • Compound 74, Molecular Wt.: 405.46 (Freebase), % Purity: Considered 100%. • Formulation: DMSO • Dose: 5, 15, 50 and 150 mg/kg • Dose volume: 2 mL/kg • Feeding regimen: freely fed • Groups:
# Study Design: A total of thirty male mice were used into the study and divided in to five groups with six mice in each group (n=6 mice/group/treatment design). Animals in Group 1 to Group 4 were administered intraperitoneally with Compound 74 solution formulation at 5, 15, 50 and 150 mg/kg dose, respectively. Animals in Group 5 were administered intraperitoneally with vehicle at 2 mL/kg dose. Blood and brain samples were collected at 0.5 h post dose. Mice were euthanized by cervical dislocation and brain samples were dissected rapidly and snap frozen in liquid nitrogen, weighed and homogenized in 2 mL of acetonitrile containing 2-AGd5. Blood samples were centrifuged at 4000 rpm for 10 minutes at 4° C. Plasma was harvested and separated in pre-labeled tubes. All samples were stored below −70° C. until bioanalysis.
# Analysis: Brain samples were processed for 2-AG estimation. 2-AG levels were the detected values. Plasma concentrations were determined by fit for purpose LC-MS/MS method. LLOQ: 5.09 ng/mL (Plasma and brain)
# This experiment was performed to determine plasma pharmacokinetics and estimate 2-AG levels in male C57BL/6 mice brain following a single intraperitoneal administration of Compound-473 (Dose: 20 mg/kg). • Compound 473, Molecular Wt.: 463.41 (Freebase), % Purity: >98%. • Formulation: DMSO • Dose: 20 mg/kg • Dose volume: 10 mL/kg • Feeding regimen: Food and water ad libitum • Groups:
# Study Design: A total of twelve C57BL/6 male mice were used in this study. Six animals were administered intraperitoneally with solution formulation of PSY-05-00473-002 at 20 mg/kg dose. Six animals were administered vehicle (5% NMP, 5% Solutol HS15 and 90% Normal saline) intraperitoneally at 10 mL/kg dose volume. Blood samples (approximately 60 μL) were collected under light isoflurane anesthesia from a set of six mice at 0.5 h. Plasma was harvested by centrifugation of blood and stored at −70±10° C. until analysis. After blood collection, mice were euthanized by cervical dislocation and brain samples were dissected rapidly and snapped frozen in liquid nitrogen and stored at −80. To homogenize, removed brain samples from the freezer, were divided into two equal hemispheres and weighed while still in frozen condition, and begun homogenization/extraction procedure without allowing the brain samples to thaw. One part is used for PK estimation and the other part is used for 2-AG estimation.
# Analysis: For PK estimation, brain samples were homogenized in 2 volumes of PBS of brain weight. Total homogenate volume was three times of the brain weight. For 2-AG estimation, the frozen brain samples were homogenized in 2 mL acetonitrile containing 2-AGd5 (8.88 nmoles) will be incubated overnight at −20° C. to precipitate proteins. Blood samples were centrifuged at 10000 rpm for 10 minutes at 4° C. All samples were stored below −70° C. until bioanalysis. Plasma and brain homogenate samples were quantified by fit-for-purpose LC-MS/MS method (LLOQ: 1.02 ng/mL for plasma and 2.03 ng/mL for brain).
smiles,measurement,setting,value
"O=C(c1cc(O)ccc1F)N1CC2(CC(n3cc(C(F)(F)F)c(-c4ccccc4F)n3)C2)C1 (single isomer, unassigned) [Compound 473, (2-fluoro-5-hydroxyphenyl){6-[3-(o-fluorophenyl)-4-(trifluoromethyl)-1-pyrazolyl]-2-aza-2-spiro[3.3]heptyl}methanone]",degree to which MAGL enzymatic activity returned following washout of test compounds,MAGL enzyme; pre-washout compound concentration 1 μM,41
same,% MAGL activity returning after washout,"MAGL enzyme; relative to control (no inhibitor before washout), immediately following 30 minute washout",<50%
same,concentration at 0.5 h,"[1]; brain, read-out: Brain Concentration (ng/g), Mean",2630 ng/g
same,Kp at 0.5 h,"[1]; brain/plasma, read-out: Brain/Plasma Ratio (kp), Mean",1.44
same,concentration at 0.5 h,"[1]; plasma, read-out: Plasma Concentration (ng/mL), Mean",1820 ng/mL
